From PubChem BioAssay (NCI)
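Each compound was tested at five concentrations against cells in 96-well plates for 48 hours. TGI is the concentration that stops growth completely.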

Assays:
Assay in all cases: growth of human tumour cells (NCI), 48 h
[1] = system: HCT-15 colon
[2] = system: ACHN renal
[3] = system: UACC-62 melanoma
[4] = system: A498 renal
[5] = system: SNB-78 CNS
[6] = system: NCI-H226 lung
[7] = system: SK-MEL-2 melanoma
[8] = system: OVCAR-5 ovarian
[9] = system: DLD-1 colon
[10] = system: A549 NSCLC
[11] = system: COLO 205 colon
[12] = system: DMS 114 small cell lung
[13] = system: NCI-H23 lung
[14] = system: HOP-92 NSCLC
[15] = system: OVCAR-4 ovarian
[16] = system: IGROV1 ovarian
[17] = system: TK-10 renal
[18] = system: SN12C renal
[19] = system: SNB-19 CNS
[20] = system: SF-539 CNS
[21] = system: OVCAR-3 ovarian
[22] = system: SF-268 CNS
[23] = system: SW-620 colon
[24] = system: CAKI-1 renal
[25] = system: UACC-257 melanoma
[26] = system: KM20L2 colon
[27] = system: SF-295 CNS
[28] = system: DMS 273 small cell lung
[29] = system: HOP-62 NSCLC
[30] = system: SK-MEL-28 melanoma
[31] = system: OVCAR-8 ovarian
[32] = system: HOP-18 NSCLC
[33] = system: HCT-116 colon
[34] = system: 786-0 renal
[35] = system: LOX IMVI melanoma
[36] = system: NCI-H460 lung
[37] = system: KM12 colon
[38] = system: U251 CNS
[39] = system: XF 498 CNS
[40] = system: SK-MEL-5 melanoma
[41] = system: RXF 393 renal
[42] = system: MALME-3M melanoma
[43] = system: EKVX NSCLC
[44] = system: HCC-2998 colon
[45] = system: M14 melanoma
[46] = system: M19-MEL melanoma
[47] = system: LXFL 529 NSCLC
[48] = system: SK-OV-3 ovarian
[49] = system: SNB-75 CNS
[50] = system: UO-31 renal
[51] = system: MOLT-4 leukemia
[52] = system: NCI-H522 lung
[53] = system: SR leukemia
[54] = system: HL-60(TB) leukemia
[55] = system: HT29 colon
[56] = system: CCRF-CEM leukemia
[57] = system: RPMI-8226 leukemia
[58] = system: K-562 leukemia

## CCCCCC(=O)OCCOCCOCCOCCOCCOCc1ccccc1
[1]
  TGI: > 100 µM
[2]
  TGI: > 100 µM
[3]
  TGI: > 100 µM
[4]
  TGI: > 100 µM
[5]
  TGI: > 100 µM
[6]
  TGI: > 100 µM
[7]
  TGI: > 100 µM
[8]
  TGI: > 100 µM
[9]
  TGI: > 100 µM
[10]
  TGI: > 100 µM
[11]
  TGI: > 100 µM
[12]
  TGI: > 100 µM
[13]
  TGI: > 100 µM
[14]
  TGI: > 100 µM
[15]
  TGI: > 100 µM
[16]
  TGI: > 100 µM
[17]
  TGI: > 100 µM
[18]
  TGI: > 100 µM
[19]
  TGI: > 100 µM
[20]
  TGI: > 100 µM
[21]
  TGI: > 100 µM
[22]
  TGI: > 100 µM
[23]
  TGI: > 100 µM
[24]
  TGI: > 100 µM
[25]
  TGI: > 100 µM
[26]
  TGI: > 100 µM
[27]
  TGI: > 100 µM
[28]
  TGI: > 100 µM
[29]
  TGI: > 100 µM
[30]
  TGI: > 100 µM
[31]
  TGI: > 100 µM
[32]
  TGI: > 100 µM
[33]
  TGI: > 100 µM
[34]
  TGI: > 100 µM
[35]
  TGI: > 100 µM
[36]
  TGI: > 100 µM
[37]
  TGI: > 100 µM
[38]
  TGI: > 100 µM
[39]
  TGI: > 100 µM
[40]
  TGI: > 100 µM
[41]
  TGI: > 100 µM
[42]
  TGI: > 100 µM
[43]
  TGI: > 100 µM

## COc1ccc2c3c([nH]c2c1CC=C(C)C)C(=O)C=C(C)C3=O
[1]
  TGI: > 25 µM
[2]
  TGI: > 25 µM
[3]
  TGI: > 25 µM
[44]
  TGI: > 25 µM
[45]
  TGI: > 25 µM
[6]
  TGI: > 25 µM
[7]
  TGI: > 25 µM
[8]
  TGI: > 25 µM
[9]
  TGI: > 25 µM
[10]
  TGI: > 25 µM
[11]
  TGI: > 25 µM
[12]
  TGI: > 25 µM
[46]
  TGI: > 25 µM
[13]
  TGI: > 25 µM
[14]
  TGI: > 25 µM
[47]
  TGI: > 25 µM
[48]
  TGI: > 25 µM
[15]
  TGI: > 25 µM
[49]
  TGI: > 25 µM
[16]
  TGI: > 25 µM
[17]
  TGI: > 25 µM
[50]
  TGI: > 25 µM
[18]
  TGI: > 25 µM
[19]
  TGI: > 25 µM
[20]
  TGI: > 25 µM
[21]
  TGI: > 25 µM
[22]
  TGI: > 25 µM
[23]
  TGI: > 25 µM
[24]
  TGI: > 25 µM
[25]
  TGI: > 25 µM
[26]
  TGI: > 25 µM
[27]
  TGI: > 25 µM
[28]
  TGI: > 25 µM
[29]
  TGI: > 25 µM
[51]
  TGI: > 25 µM
[52]
  TGI: > 25 µM
[53]
  TGI: > 25 µM
[30]
  TGI: > 25 µM
[31]
  TGI: > 25 µM
[54]
  TGI: > 25 µM
[32]
  TGI: > 25 µM
[33]
  TGI: > 25 µM
[55]
  TGI: > 25 µM
[34]
  TGI: > 25 µM
[56]
  TGI: > 25 µM
[36]
  TGI: > 25 µM
[37]
  TGI: > 25 µM
[57]
  TGI: > 25 µM
[38]
  TGI: > 25 µM
[39]
  TGI: > 25 µM
[58]
  TGI: > 25 µM
[40]
  TGI: > 25 µM
[41]
  TGI: > 25 µM
[42]
  TGI: > 25 µM
[43]
  TGI: > 25 µM

## CN(C)c1nc(N(C)C)sc(=O)n1
[1]
  TGI: > 100 µM
[2]
  TGI: > 100 µM
[3]
  TGI: > 100 µM
[4]
  TGI: > 100 µM
[44]
  TGI: > 100 µM
[45]
  TGI: > 100 µM
[6]
  TGI: > 100 µM
[7]
  TGI: > 100 µM
[8]
  TGI: > 100 µM
[9]
  TGI: > 100 µM
[10]
  TGI: > 100 µM
[12]
  TGI: > 100 µM
[46]
  TGI: > 100 µM
[13]
  TGI: > 100 µM
[14]
  TGI: > 100 µM
[47]
  TGI: > 100 µM
[48]
  TGI: > 100 µM
[15]
  TGI: > 100 µM
[49]
  TGI: > 100 µM
[16]
  TGI: > 100 µM
[17]
  TGI: > 100 µM
[50]
  TGI: > 100 µM
[18]
  TGI: > 100 µM
[19]
  TGI: > 100 µM
[20]
  TGI: > 100 µM
[22]
  TGI: > 100 µM
[23]
  TGI: > 100 µM
[24]
  TGI: > 100 µM
[25]
  TGI: > 100 µM
[26]
  TGI: > 100 µM
[27]
  TGI: > 100 µM
[28]
  TGI: > 100 µM
[29]
  TGI: > 100 µM
[51]
  TGI: > 100 µM
[52]
  TGI: > 100 µM
[53]
  TGI: > 100 µM
[30]
  TGI: > 100 µM
[31]
  TGI: > 100 µM
[54]
  TGI: > 100 µM
[32]
  TGI: > 100 µM
[55]
  TGI: > 100 µM
[34]
  TGI: > 100 µM
[56]
  TGI: > 100 µM
[36]
  TGI: > 100 µM
[37]
  TGI: > 100 µM
[57]
  TGI: > 100 µM
[38]
  TGI: > 100 µM
[39]
  TGI: > 100 µM
[58]
  TGI: > 100 µM
[40]
  TGI: > 100 µM
[41]
  TGI: > 100 µM
[43]
  TGI: > 100 µM
